IC50 data for 32 compounds are collected here from patent US12509467B2 (Hoffmann-La Roche Inc., priority 2020, dated 2025).

T1 sequence (Q8N884 161-522): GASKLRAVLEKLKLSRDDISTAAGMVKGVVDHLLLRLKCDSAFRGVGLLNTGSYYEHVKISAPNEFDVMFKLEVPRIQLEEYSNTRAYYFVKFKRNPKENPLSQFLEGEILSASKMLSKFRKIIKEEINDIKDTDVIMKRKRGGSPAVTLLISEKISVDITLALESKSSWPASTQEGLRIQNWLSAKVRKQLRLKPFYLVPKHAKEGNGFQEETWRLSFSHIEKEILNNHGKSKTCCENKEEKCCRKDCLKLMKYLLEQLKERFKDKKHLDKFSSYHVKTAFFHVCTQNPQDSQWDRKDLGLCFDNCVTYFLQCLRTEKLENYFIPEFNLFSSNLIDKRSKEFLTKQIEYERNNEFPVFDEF

The first assay has as its target T1, human cGAS (residues 161-522) (Homo sapiens, UniProt Q8N884).
T1 construct: Recombinantly expressed purified human cGAS (residues 161-522) was used at 25 nM; made in house
Put plainly: cGAS Activity Assay—Malachite Green. It counts as biochemical.
Settings: not given
As to the method: Compounds were tested for cGAS inhibition in a coupled enzymatic assay based on Phosphate detection by Malachite Green. Final assay conditions were 20 mM TRIS pH 7.5 (Applichem), 5 mM MgCl2 (Sigma) and 0.01% BSA (Sigma) supplemented with 80 μM ATP (Sigma), 80 μM GTP (Sigma) and 100 nM Interferon Stimulating DNA (ISD) (Microsynth).
1 μL of DMSO dilution series was transferred to 32.3 μL reaction buffer, mixed by pipetting up/down, spun for 1 minute at 3000 rpm and was visually inspected for precipitation. 5 μL of 3-fold enzyme stock solution were transferred to an empty 384-well Black/Clear Flat Bottom Polystyrene NBS (Corning) rows 3-24. Rows 1-2 were filled with assay buffer. Plates were spun 10 seconds at 1000 rpm (164×g). 5 μL of compound intermediate dilution was added and mixed by pipetting up/down to rows 3-24. Rows 1-2 were filled with 3.1% DMSO assay buffer. Plates were spun 10 seconds at 1000 rpm (164×g). 5 μL 3-fold Nucleotide/DNA mix was added to all wells to start the reaction. Plates were spun 10 seconds at 1000 rpm (164×g) and incubated for 4 hour at room temperature (RT) in the dark. 5 μL 4 U/mL PPase (Sigma) were added to all wells. Plates spun 10 seconds at 1000 rpm (164×g). 10 μL BioMol green Solution (Enzo Life Sciences) was added to all wells. Plates spun 10 seconds at 1000 rpm (164×g) and incubated 30 minutes at RT in the dark. Absorbance data was collected 620 nm on an EnVision Multilable Reader (Perkin Elmer) and the following measurement settings were used: excitation filter photometric was 620 nm; excitation from the top; measurement height was 1 mm; number of flashes was 30; number of flashes integrated was 1.
All plates are checked for abnormalities and outliers in the Blank Control (no protein, row 1) and the Neutral Control (no compound, row 2) are excluded using the 3*SD rule.
Table 5 provides IC50 values (μM) for cGAS inhibition obtained for particular examples of the present invention as measured by the above-described assay.
By IC50 is commonly meant the concentration at which inhibition is half-maximal. Regarding `CCCc1cc(=O)n2nc(NCc3cc(-c4ccncc4)ccc3Cl)nc2[nH]1` [Example 25, 2-[[2-chloro-5-(4-pyridyl)phen-yl]methylamino]-5-propyl-4H-[1,2,4]triazolo[1,5-a]pyrimidin-7-one], the IC50 came to 0.287 µM. Same read-out and setting: in the case of `CC(C)c1cc(=O)n2nc(NCc3ccc(Cl)cc3Cl)nc2[nH]1` [Example 61, 2-[(2,4-dichlorophenyl)methyl-amino]-5-isopropyl-4H-[1,2,4]-triazolo[1,5-a]pyrimidin-7-one] it was 2.74 µM; in that of `CCCc1cc(=O)n2nc(NCc3cc(-n4cncc4C)ccc3Cl)nc2[nH]1` [Example 87, 2-[[2-chloro-5-(5-methylimidazol-1-yl)phenyl]methylamino]-5-propyl-4H-[1,2,4]triazolo[1,5-a]pyrimidin-7-one], 0.64 µM; in that of `CCCc1cc(=O)n2nc(NCc3ccc(-c4ccccc4)cc3Cl)nc2[nH]1` [Example 4], 0.765 µM. In turn, `CCCCc1cc(=O)n2nc(NCc3ccc(Cl)cc3Cl)nc2[nH]1` [Example 35, 5-butyl-2-[(2,4-dichlorophen-yl)methylamino]-4H-[1,2,4]-triazolo-[1,5-a]pyrimidin-7-one] returned an IC50 of 1.32 µM.

Compound `CCCc1cc(=O)n2nc(NCc3cc(-c4ccn(C)n4)ccc3C)nc2[nH]1` [Example 83, 2-[[2-methyl-5-(1-methyl-pyrazol-3-yl)phenyl]methyl-amino]-5-propyl-4H-[1,2,4]-triazolo[1,5-a]pyrimidin-7-one] registered an IC50 of 1.24 µM. `Cn1ccc(-c2ccc(Cl)c(CNc3nc4[nH]c(CCc5ccccc5)cc(=O)n4n3)c2)n1` [Example 26, 2-[[2-chloro-5-(1-methylpyrazol-3-yl)phenyl]methylamino]-5-(2-phenylethyl)-4H-[1,2,4]-triazolo[1,5-a]pyrimidin-7-one]: the half-inhibitory concentration (IC50) worked out at 1.6 µM. The compound `CCCc1cc(=O)n2nc(NCc3cc(-c4ccccn4)ccc3Cl)nc2[nH]1` [Example 29, 2-[[2-chloro-5-(2-pyridyl)phen-yl]methylamino]-5-propyl-4H-[1,2,4]triazolo[1,5-a]pyrimidin-7-one] returned a half-maximal inhibitory concentration (IC50) of 0.668 µM.

Compound `CCCc1cc(=O)n2nc(NCc3ccc(OCC(F)(F)F)cc3)nc2[nH]1` [Example 8, 5-propyl-2-[[4-(2,2,2-trifluoro-ethoxy)phenyl]methyllamino]-4H-[1,2,4]triazolo[1,5-a]-pyrimidin-7-one] displayed an IC50 of 7.78 µM. Still for that read-out and setting: in the case of `CCCc1cc(=O)n2nc(NCc3ccc(OCc4ccccc4)cc3)nc2[nH]1` [Example 17, 2-[(4-benzyloxyphenyl)methyl-amino]-5-propyl-4H-[1,2,4]-triazolo[1,5-a]pyrimidin-7-one] it was 4.08 µM; in that of `CCCc1cc(=O)n2nc(NCc3ccc(OCC)cc3Cl)nc2[nH]1` [Example 11], 1.34 µM.

Still in this assay, the particulars now being: cGAS inhibition; 25 nM cGAS, 80 μM ATP, 80 μM GTP, 100 nM ISD, 4 hour at RT, Malachite Green phosphate detection; read-out: IC50 cGAS.
Regarding `CCCCc1cc(=O)n2nc(NCc3cc(-c4ccccc4)nn3C)nc2[nH]1` [Example 44, 5-butyl-2-[(2-methyl-5-phenyl-pyrazol-3-yl)methylamino]-4H-[1,2,4]triazolo[1,5-a]pyrimidin-7-one], the IC50 was 6.57 µM.

For the compound `CCCc1cc(=O)n2nc(NCc3ccc(OC)cc3Cl)nc2[nH]1` [Example 69, 2-[(2-chloro-4-methoxyphen-yl)methylamino]-5-propyl-4H-[1,2,4]triazolo[1,5-a]pyrimidin-7-one], the IC50 was 9.51 µM. As for `CCCCc1cc(=O)n2nc(NCc3cnn(-c4cnccn4)c3)nc2[nH]1` [Example 45, 5-butyl-2-[(1-pyrazin-2-ylpyr-azol-4-yl)methylamino]-4H-[1,2,4]triazolo[1,5-a]pyrimidin-7-one], the IC50 turned out to be 3.53 µM. For the compound `CCCc1cc(=O)n2nc(NCc3ccc(N4CCOCC4)cc3)nc2[nH]1` [Example 42, 2-[(4-morpholinophenyl)meth-amino]-5-propyl-4H-[1,2,4]-triazolo[1,5-a]pyrimidin-7-one], the 50% inhibitory concentration (IC50) was 2.13 µM. Consider `CCCc1cc(=O)n2nc(NCc3ccc4ncccc4c3)nc2[nH]1` [Example 22, 5-propyl-2-(6-quinolylmethyl-amino)-4H-[1,2,4]triazolo[1,5-a]pyrimidin-7-one], for which the IC50 came to 3 µM. Turning to `Cn1ccc(-c2ccc(Cl)c(CNc3nc4[nH]c(CCCC(F)F)cc(=O)n4n3)c2)n1` [Example 50, 2-[[2-chloro-5-(1-methylpyrazol-3-yl)phenyl]methylamino]-5-(4,4-difluorobutyl)-4H-[1,2,4]-triazolo[1,5-a]pyrimidin-7-one], the IC50 was determined as 0.263 µM. `CCCc1cc(=O)n2nc(NCc3cc(-c4ccn(C)n4)ccc3OC)nc2[nH]1` [Example 28, 2-[[2-methoxy-5-(1-methyl-pyrazol-3-yl)phenyl]methyl-amino]-5-propyl-4H-[1,2,4]-triazolo[1,5-a]pyrimidin-7-one]: the half-inhibitory concentration (IC50) was 1.91 µM.

On to `CCCc1cc(=O)n2nc(NCc3cc(N4CCCCC4)ncc3Cl)nc2[nH]1` [Example 94, 2-[[5-chloro-2-(1-piperidyl)-4-pyridyl]methylamino]-5-propyl-4H-[1,2,4]triazolo[1,5-a]pyrimidin-7-one], for which the concentration for half-maximal inhibition (IC50) was found to be 2.55 µM. Turning to `CCCCc1cc(=O)n2nc(NCc3cc(-c4ccn(C)n4)ccc3Cl)nc2[nH]1` [Example 32, 5-butyl-2-[[2-chloro-5-(1-methyl-pyrazol-3-yl)phenyl]methyl-amino]-4H-[1,2,4]triazolo[1,5-a]pyrimidin-7-one], the IC50 came out at 0.162 µM.

Take `O=c1cc(C(F)(F)F)[nH]c2nc(NCc3ccc(Cl)cc3Cl)nn12` [Example 60, 2-[(2,4-dichlorophenyl)methyl-amino]-5-(trifluoromethyl)-4H-[1,2,4]triazolo[1,5-a]-pyrimidin-7-one]: the IC50 came out at 1.25 µM. For `O=c1cc(Cc2ccccc2)[nH]c2nc(NCc3cc(-c4ccncc4)ccc3Cl)nn12` [Example 31, 5-benzyl-2-[[2-chloro-5-(4-pyridyl)phenyl]methylamino]-4H-[1,2,4]triazolo[1,5-a]-pyrimidin-7-one], the 50% inhibitory concentration (IC50) turned out to be 0.078 µM. Still for that read-out and setting: as for `CCCCc1cc(=O)n2nc(NCc3ccn(-c4ccccc4)n3)nc2[nH]1` [Example 47, 5-butyl-2-[(1-phenylpyrazol-3-yl)methylamino]-4H-[1,2,4]-triazolo[1,5-a]pyrimidin-7-one], the figure is 2.01 µM. The same measure, in the same setting: in the case of `CCCc1cc(=O)n2nc(NCc3cc(-c4ccn(C)n4)ccc3C#N)nc2[nH]1` [Example 84, 4-(1-methylpyrazol-3-yl)-2-[[(7-oxo-5-propyl-4H-[1,2,4]-triazolo[1,5-a]pyrimidin-2-yl)amino]methyl]benzonitrile] it was 1.15 µM; in that of `CCCc1cc(=O)n2nc(NC(C)c3ccc(Cl)cc3Cl)nc2[nH]1` (centres unmarked) [Example 76, 2-[1-(2,4-dichlorophenyl)ethyl-amino]-5-propyl-4H-[1,2,4]-triazolo[1,5-a]pyrimidin-7-one], 6.72 µM. Consider `CC(Nc1nc2[nH]c(C(F)(F)F)cc(=O)n2n1)c1ccc(-c2ccccc2)cc1` (centres unmarked) [Example 78, 2-[1-(4-phenylphenyl)ethyl-amino]-5-(trifluoromethyl)-4H-[1,2,4]triazolo[1,5-a]pyrimidin-7-one], for which the IC50 came to 2.45 µM. As for `O=c1cc(CNc2ccccc2F)[nH]c2nc(NCc3ccccc3Cl)nn12` [Example 80, 2-[(2-Chlorophenyl)methylamino]-5-1(2-fluoroanilino)methyl1-4H-11,2,41triazolo[1,5-a]pyrimidin-7-one], the IC50 is 1.92 µM. Take `O=c1cc(C(F)(F)F)[nH]c2nc(NCc3ccc(-c4ccccc4)cc3)nn12` [Example 75, 2-[(4-phenylphenyl)methyl-amino]-5-(trifluoromethyl)-4H-[1,2,4]triazolo[1,5-a]pyrimidin-7-one]: the half-inhibitory concentration (IC50) is 0.827 µM.

Regarding `CCCc1cc(=O)n2nc(NCc3ccc(OC)cc3C)nc2[nH]1` [Example 70, 2-[(4-methoxy-2-methylphen-yl)methylamino]-5-propyl-4H-[1,2,4]triazolo[1,5-a]pyrimidin-7-one], the 50% inhibitory concentration (IC50) was determined as 3.64 µM. On to `O=c1cc(CC2CCC2)[nH]c2nc(NCc3ccc(Cl)cc3Cl)nn12` [Example 65], for which the IC50 came to 1.59 µM.

Regarding `CCc1cc(=O)n2nc(NCc3cc(-c4ccn(C)n4)ccc3Cl)nc2[nH]1` [Example 33, 2-[[2-chloro-5-(1-methylpyrazol-3-yl)phenyl]methylamino]-5-ethyl-4H-[1,2,4]triazolo[1,5-a]pyrimidin-7-one], the half-inhibitory concentration (IC50) is 0.816 µM. On the same count and under the same terms, as for `CCCc1cc(=O)n2nc(NCc3cc(-c4cccnn4)ccc3Cl)nc2[nH]1` [Example 85, 2-[(2-Chloro-5-pyridazin-3-yl-phenyl)methylamino]-5-propyl-4H-[1,2,4]triazolo[1,5-a]pyrimidin-7-one], the figure is 2.77 µM.
